Experimental findings from article PMC6789111, “Crossing the blood-brain-barrier with nanoligand drug carriers self-assembled from a phage display peptide” (Nature Communications, 2019) are described below.

The subject of this series is hCMEC/D3 cell monolayer. Put plainly: Transwell in vitro BBB model. The series is classed as cell-based, human. The procedure: For the construction of the in vitro BBB model, hCMEC/D3 cells were seeded on rat tail collagen-coated polycarbonate membranes (Transwell, No. 3401 Costar; Corning, Wiesbaden, Germany; 0.4 μm pore size; 1.13 cm^2 growth area) with a density of 100,000 cells cm^−2. Every three days the cell medium was change. In general after 7 days growth, the cells reached confluence. The transendothelial electrical resistance (TEER) and cell layer capacitance (CCL), which reflects the membrane surface area of the hCMEC/D3 cell monolayer, were measured using CellZscope system (NanoAnalytics, Münster, Germany). Cells with CCL values in the range of 0.5–5.0 μF cm^−2 indicate cell confluence and validate TEER values were selected for the transfer experiments. NLCs at different concentrations were introduced in to the apical side of the BBB model. The TEER values were measured during the incubation. After 24 h of incubation, the media from basal and apical sides were sampled and analysed for fluorescent measurement. CD31 and paracellular adherens (β-catenin) junctions were assessed by immunofluorescence labeling directly on the cell monolayer attached to the transwell membrane. Briefly, cells were fixed by 4% v/v paraformaldehyde for 10 min, rinsed and then permeabilised with 0.5% (v/v) Triton X-100 for 10 min. After rinsing samples were blocked by 5% w/v BSA for 1 h, followed by incubation with primary antibodies (rabbit polyclonal to CD31, rabbit polyclonal to anti-β-catenin) in 1% w/v BSA overnight at 4 °C. […] After rinsing, the red fluorescence from tight junction proteins was observed by a Leica AF6000LX microscope equipped with a 63 × objective using ×1.6 magnifications. […]
formation of multiple cell-layers was sometime observed from day 7 onward. […] TEER values and its corresponding capacitance were recorded after the introduction of peptide for 24 h. (d) & (e) Staining and quantification of endothelial cells (CD31) and adheren β-catenin markers confirming the presence of a functional tight junction before and after NLC ( 5 µM) challenge. […]

Peptide text beside a SMILES is read from it. * marks the point of attachment. 5FAM = O=C1OC2(c3ccc(O)cc3Oc3cc(O)ccc32)c2ccc(C(=O)*)cc21

With `CC[C@H](C)[C@H](NC(=O)[C@H](CC(N)=O)NC(=O)[C@H](Cc1c[nH]cn1)NC(=O)[C@@H](NC(=O)[C@@H]1CCCN1C(=O)[C@H](CCCNC(=N)N)NC(=O)[C@H](Cc1ccc(O)cc1)NC(=O)CNC(=O)[C@H](CS)NC(=O)c1ccc2c(c1)C(=O)OC21c2ccc(O)cc2Oc2cc(O)ccc21)C(C)C)C(=O)N[C@@H](CCCNC(=N)N)C(=O)NCC(=O)N[C@@H](Cc1c[nH]cn1)C(=O)N[C@@H](Cc1c[nH]c2ccccc12)C(=O)N[C@@H](C)C(=O)N1CCC[C@H]1C(=O)NCC(=O)O` [FAM-CGY] (5FAM-CGYRPVHNIRGHWAPG-OH), the “transport across the hCMEC/D3 monolayer” value is recorded as “transport of a fraction across the monolayer”.
